The experiment relates to BDF1 mice, P388 leukemia ip, median survival T/C. Description: NCI In Vivo Anticancer Drug Screen. Data for tumor model P388 Leukemia (intraperitoneal) in B6D2F1 (BDF1) mice. As to conditions: endpoint: median survival time, higher = longer survival. Put shortly: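 Antitumour effect was judged in vivo: survival in drug-treated mice, normalised to that of vehicle-dosed controls, gives the reported T/C.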

Where [1] appears, read: dose: 50.0 mg/kg/injection, schedule: Q01DX009 (ip), vehicle: saline with Tween-80.
[2] abbreviates: dose: 100.0 mg/kg/injection, schedule: Q01DX009 (ip), vehicle: saline with Tween-80.
[3] abbreviates: dose: 200.0 mg/kg/injection, schedule: Q01DX009 (ip), vehicle: saline with Tween-80.
[4] abbreviates: dose: 400.0 mg/kg/injection, schedule: Q01DX009 (ip), vehicle: saline with Tween-80.
Setting [5] is: dose: 100.0 mg/kg/injection, schedule: Q04DX003 (ip), vehicle: saline with Tween-80.
[6] abbreviates: dose: 200.0 mg/kg/injection, schedule: Q04DX003 (ip), vehicle: saline with Tween-80.
[7] abbreviates: dose: 400.0 mg/kg/injection, schedule: Q04DX003 (ip), vehicle: saline with Tween-80.
Where [8] appears, read: dose: 12.5 mg/kg/injection, schedule: Q01DX009 (ip), vehicle: saline with Tween-80.
Where [9] appears, read: dose: 6.25 mg/kg/injection, schedule: Q04DX003 (ip), vehicle: saline with Tween-80.
Where [10] appears, read: dose: 12.5 mg/kg/injection, schedule: Q04DX003 (ip), vehicle: saline with Tween-80.
Where [11] appears, read: dose: 25.0 mg/kg/injection, schedule: Q04DX003 (ip), vehicle: saline with Tween-80.
[12] abbreviates: dose: 100.0 mg/kg/injection, schedule: Q01DX001 (ip), vehicle: Klucel (hydroxypropylcellulose) (HPC).
Setting [13] is: dose: 200.0 mg/kg/injection, schedule: Q01DX001 (ip), vehicle: Klucel (hydroxypropylcellulose) (HPC).
The mark [14] stands for this setting: dose: 3.12 mg/kg/injection, schedule: Q01DX009 (ip), vehicle: saline with Tween-80.
[15] abbreviates: dose: 6.25 mg/kg/injection, schedule: Q01DX009 (ip), vehicle: saline with Tween-80.

Values joined by “and” are separate entries in the source; they are usually repeats but may differ in a detail not shown here. Equal entries are not always repeated. Inconclusive results and toxic doses are left out.

For the compound `CN(Cc1ccc2nc(N)nc(N)c2c1)c1ccc(C(=O)NC(CCC(=O)O)C(=O)O)cc1` (stereo not drawn), the T/C is, setting by setting: (dose: 0.03 mg/kg/injection, schedule: Q01DX009 (ip), vehicle: saline) 172 % of control; (dose: 0.05 mg/kg/injection, schedule: Q01DX009 (ip), vehicle: saline) 194 % of control; (dose: 0.09 mg/kg/injection, schedule: Q01DX009 (ip), vehicle: saline) 200 % of control and 218 % of control; (dose: 0.15 mg/kg/injection, schedule: Q01DX009 (ip), vehicle: saline) 86 % of control and 190 % of control and 209 % of control; (dose: 0.22 mg/kg/injection, schedule: Q01DX009 (ip), vehicle: saline) 223 % of control; (dose: 0.31 mg/kg/injection, schedule: Q01DX009 (ip), vehicle: saline) 110 % of control. The T/C by setting is: (dose: 1.25 mg/kg/injection, schedule: Q04DX003 (ip), vehicle: saline) 218 % of control; (dose: 1.65 mg/kg/injection, schedule: Q04DX003 (ip), vehicle: saline) 154 % of control; (dose: 2.5 mg/kg/injection, schedule: Q04DX003 (ip), vehicle: saline) 268 % of control and 159 % of control and 181 % of control; (dose: 3.75 mg/kg/injection, schedule: Q04DX003 (ip), vehicle: saline) 86 % of control and 222 % of control; (dose: 5.0 mg/kg/injection, schedule: Q04DX003 (ip), vehicle: saline) 104 % of control; (dose: 5.7 micrograms/kg/injection, schedule: Q01DX009 (ip), vehicle: saline) 116 % of control. For the same compound, the T/C was 116 % of control (dose: 8.5 micrograms/kg/injection, schedule: Q01DX009 (ip), vehicle: saline); 262 % of control (dose: 13.0 micrograms/kg/injection, schedule: Q01DX009 (ip), vehicle: saline); 174 % of control (dose: 19.0 micrograms/kg/injection, schedule: Q01DX009 (ip), vehicle: saline).
As to `CC(=O)NC(N)=O`, the T/C is 100 % of control (dose: 100.0 mg/kg/injection, schedule: Q01DX001 (ip), vehicle: saline with Tween-80); 100 % of control (dose: 200.0 mg/kg/injection, schedule: Q01DX001 (ip), vehicle: saline with Tween-80); 109 % of control (dose: 400.0 mg/kg/injection, schedule: Q01DX001 (ip), vehicle: saline with Tween-80).
Consider `C[N-]c1nnnn1Cc1ccccc1.[Au+].c1ccc([PH+](c2ccccc2)c2ccccc2)cc1`, for which the T/C runs as follows: (dose: 25.0 mg/kg/injection, schedule: Q04DX002 (ip), vehicle: saline with Tween-80) 109 % of control; (dose: 50.0 mg/kg/injection, schedule: Q04DX002 (ip), vehicle: saline with Tween-80) 102 % of control; (dose: 100.0 mg/kg/injection, schedule: Q04DX002 (ip), vehicle: saline with Tween-80) 116 % of control.
`COc1cc(NC(=O)CC(C)=O)cc2c(C)cc(=O)[nH]c12`: the T/C was 91 % of control (dose: 75.0 mg/kg/injection, schedule: Q04DX003 (ip), vehicle: Klucel (hydroxypropylcellulose) (HPC)); 100 % of control (dose: 150.0 mg/kg/injection, schedule: Q04DX003 (ip), vehicle: Klucel (hydroxypropylcellulose) (HPC)); 104 % of control (dose: 300.0 mg/kg/injection, schedule: Q04DX003 (ip), vehicle: Klucel (hydroxypropylcellulose) (HPC)).
As for `C=CCc1ccccc1OC`, the T/C by setting is: under setting [1], 118 % of control; under setting [2], 104 % of control.
For the compound `COC(=O)C(Br)C(OC)c1ccc(C)cc1` (stereo not drawn), the T/C is, setting by setting: under setting [2], 100 % of control; under setting [3], 100 % of control; under setting [4], 95 % of control.
Take `COC(=O)CCN(c1ccccc1)S(=O)(=O)c1ccc(C)cc1`: the T/C runs as follows: (dose: 100.0 mg/kg/injection, schedule: Q01DX009 (ip), vehicle: Klucel (hydroxypropylcellulose) (HPC)) 104 % of control; (dose: 100.0 mg/kg/injection, schedule: Q04DX003 (ip), vehicle: Klucel (hydroxypropylcellulose) (HPC)) 100 % of control; (dose: 200.0 mg/kg/injection, schedule: Q01DX009 (ip), vehicle: Klucel (hydroxypropylcellulose) (HPC)) 104 % of control; (dose: 200.0 mg/kg/injection, schedule: Q04DX003 (ip), vehicle: Klucel (hydroxypropylcellulose) (HPC)) 100 % of control; (dose: 400.0 mg/kg/injection, schedule: Q01DX009 (ip), vehicle: Klucel (hydroxypropylcellulose) (HPC)) 95 % of control; (dose: 400.0 mg/kg/injection, schedule: Q04DX003 (ip), vehicle: Klucel (hydroxypropylcellulose) (HPC)) 100 % of control.
In the case of `OC(C#CC(O)c1ccccc1)c1ccccc1` (stereo not drawn), the T/C (dose: 100.0 mg/kg/injection, schedule: Q04DX003 (ip), vehicle: saline) was 100 % of control and the T/C (dose: 200.0 mg/kg/injection, schedule: Q04DX003 (ip), vehicle: saline) was 104 % of control.
For the compound `O=C(Cn1ccc(O)cc1=O)c1ccco1`, the T/C runs as follows: under setting [2], 100 % of control; under setting [5], 100 % of control; under setting [3], 95 % of control; under setting [6], 109 % of control; under setting [4], 104 % of control; under setting [7], 104 % of control.
In the case of `CCC[CH2][Hg][Cl]`, the T/C is, setting by setting: (dose: 6.25 mg/kg/injection, schedule: Q04DX003 (ip), vehicle: saline sonified) 115 % of control; (dose: 11.0 mg/kg/injection, schedule: Q01DX009 (ip), vehicle: saline with Tween-80) 100 % of control; under setting [8], 109 % of control; (dose: 12.5 mg/kg/injection, schedule: Q04DX003 (ip), vehicle: saline sonified) 110 % of control; (dose: 16.5 mg/kg/injection, schedule: Q01DX009 (ip), vehicle: saline with Tween-80) 150 % of control; (dose: 16.5 mg/kg/injection, schedule: Q04DX003 (ip), vehicle: saline sonified) 113 % of control. The T/C is, setting by setting: (dose: 25.0 mg/kg/injection, schedule: Q04DX003 (ip), vehicle: saline sonified) 104 % of control; (dose: 37.5 mg/kg/injection, schedule: Q04DX003 (ip), vehicle: saline sonified) 118 % of control.
Consider `C=CC(CO)N1CC1` (stereo not drawn), for which the T/C is 100 % of control under setting [9], 112 % of control under setting [10] and 104 % of control under setting [11].
For `CCCCN(CCCC)CC(O)c1ccc2cc(Cl)cc(Cl)c2n1` (stereo not drawn) the same measures were 110 % of control, 115 % of control and 110 % of control.
With `COC(=O)CSC/C(=N\Nc1ccccc1)c1ccccc1`, the T/C under setting [12] was 95 % of control; the T/C under setting [13] was 100 % of control; the T/C (dose: 400.0 mg/kg/injection, schedule: Q01DX001 (ip), vehicle: Klucel (hydroxypropylcellulose) (HPC)) was 109 % of control.
Take `CCC(O)(c1ccc(OC)cc1)C(c1ccccc1)c1ccccn1` (stereo not drawn): the T/C (dose: 31.25 mg/kg/injection, schedule: Q01DX009 (ip), vehicle: saline with Tween-80) was 103 % of control; the T/C (dose: 62.5 mg/kg/injection, schedule: Q01DX009 (ip), vehicle: saline with Tween-80) is 103 % of control; the T/C (dose: 125.0 mg/kg/injection, schedule: Q01DX009 (ip), vehicle: saline with Tween-80) is 100 % of control.
Regarding `O=C1OC(O)C(Cl)=C1Cl` (stereo not drawn), the T/C is 101 % of control (dose: 1.56 mg/kg/injection, schedule: Q01DX009 (ip), vehicle: saline with Tween-80); 107 % of control under setting [14]; 109 % of control and 115 % of control under setting [15]; 115 % of control under setting [8].
Regarding `Nc1ccc(OCCCc2c(-c3ccccc3)nc(N)[nH]c2=O)cc1`, the T/C is, setting by setting: (dose: 25.0 mg/kg/injection, schedule: Q01DX009 (ip), vehicle: saline with Tween-80) 100 % of control; under setting [1], 99 % of control; under setting [2], 108 % of control.
For the compound `CC1CCCC2(CN=C(Nc3ccccc3)O2)C1` (stereo not drawn), the T/C is 99 % of control under setting [12] and 114 % of control under setting [13].
With `N#CC(C#N)=C1SCS1`, the T/C under setting [14] is 123 % of control and the T/C under setting [15] was 123 % of control.
For `O=C(O)C(Br)C(Br)c1ccccc1` (stereo not drawn), the T/C is 100 % of control under setting [5], 100 % of control under setting [6] and 109 % of control under setting [7].
For the compound `Cc1ccc(C2NC(=O)c3ccccc3N2)s1` (stereo not drawn), the T/C (dose: 50.0 mg/kg/injection, schedule: Q01DX009 (ip), vehicle: Klucel (hydroxypropylcellulose) (HPC)) was 107 % of control and 113 % of control.

The values above are taken from PubChem BioAssay AID328 (DTP/NCI, 2004).
